The numbers were not newly measured in patent US4256727A, “Synthesis and use of diagnostic radio-pharmaceuticals comprising radioactive isotopes of bromine with dyes” (The University of Kentucky Research Foundation, priority 1978, dated 1981), which cites them from elsewhere.

The conditions of data set [1]: rate at which the drug is cleared from the blood after injection.
For data set [2] the following is noted: formulated with propylene glycol and stored at refrigerated temperatures.

As for `O=C1OC2(c3cc(I)c(O)c(I)c3Oc3c2cc(I)c(O)c3I)c2c(Cl)c(Cl)c(Cl)c(Cl)c21` [Rose Bengal], in data set [1], the “half life of clearance from the blood” value was 8 to 10 min. Also, the “stability of the product” value in data set [2] is reported as “stable”.

As for `O=S1(=O)OC(c2cc(Br)c(O)c(Br)c2)(c2cc(Br)c(O)c(Br)c2)c2ccccc21` [bromphenol blue, 4,4'-(3H-2,1,-benzoxathiol-3-ylidene)bis[2,6-dibromophenol]S,S,-dioxide], the “half life of clearance from the blood” value in data set [1] is 1.5 min.
